According to patent EP3722296B1, “DIHYDRONAPHTHYRIDINES AND RELATED COMPOUNDS USEFUL AS KINASE INHIBITORS FOR THE TREATMENT OF PROLIFERATIVE DISEASES” (Deciphera Pharmaceuticals, LLC, priority 2012, dated 2013):
pIC50: −log10 of the molar value.

Assays:
c-KIT D816V kinase = target: T1, c-KIT D816V kinase (Homo sapiens, UniProt P10721, D816V); experiment: c-KIT D816V kinase Assay; assay type: biochemical; conditions: enzymatic assay, ATP 200 uM
T1 construct: residues T544-V976 with N-terminal GST fusion; purchased deCODE Biostructures
T1 sequence (P10721 544-976 D816V): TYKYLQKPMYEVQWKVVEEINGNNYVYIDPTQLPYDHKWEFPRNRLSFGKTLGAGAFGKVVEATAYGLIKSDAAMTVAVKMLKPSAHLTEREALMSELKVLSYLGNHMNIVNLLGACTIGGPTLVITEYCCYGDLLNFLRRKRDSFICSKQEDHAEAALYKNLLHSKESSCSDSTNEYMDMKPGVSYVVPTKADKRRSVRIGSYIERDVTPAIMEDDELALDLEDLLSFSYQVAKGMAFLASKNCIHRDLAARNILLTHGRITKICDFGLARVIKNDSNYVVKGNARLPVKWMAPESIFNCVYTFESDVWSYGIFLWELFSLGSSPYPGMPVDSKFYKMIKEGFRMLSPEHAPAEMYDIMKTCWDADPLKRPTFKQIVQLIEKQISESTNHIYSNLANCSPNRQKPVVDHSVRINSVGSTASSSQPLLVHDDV
In short: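 Coupled assay in which NADH oxidation was tracked as decreasing absorbance at 340 nm, continuously for 5 hours at 30 °C after adding serially diluted compound. Enzyme: cKit residues T544-V976 with N-terminal tag, GST fusion and TEV cleavage site.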

c-KIT VVDV kinase = target: T2, c-KIT VVDV kinase (Homo sapiens, UniProt P10721, D816V/DEL559-560); experiment: cKIT-VVDV kinase Assay; assay type: biochemical; conditions: enzymatic assay; V559+V560 deletions and D816V mutation
T2 construct: This construct contains residues T544-V976 of cKit; GST (N); TEV cleavage site (internal); purchased deCODE Biostructures
T2 sequence (P10721 with tags, fused parts or gaps DEL559-560/D816V): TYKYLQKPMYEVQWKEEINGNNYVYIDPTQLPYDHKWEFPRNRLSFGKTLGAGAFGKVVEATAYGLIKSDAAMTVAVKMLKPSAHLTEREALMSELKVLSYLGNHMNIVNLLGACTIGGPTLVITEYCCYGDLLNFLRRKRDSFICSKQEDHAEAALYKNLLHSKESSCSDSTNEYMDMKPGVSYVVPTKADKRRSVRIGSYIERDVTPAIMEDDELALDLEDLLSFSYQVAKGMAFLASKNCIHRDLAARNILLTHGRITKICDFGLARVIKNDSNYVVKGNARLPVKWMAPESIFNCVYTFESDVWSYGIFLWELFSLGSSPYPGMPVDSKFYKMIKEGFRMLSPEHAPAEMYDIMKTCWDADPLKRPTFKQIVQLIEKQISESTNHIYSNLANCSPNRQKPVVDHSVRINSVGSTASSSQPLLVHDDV
Experimental: In this assay, the oxidation of NADH (measured by decrease in absorbance at 340 nm) was continuously monitored spectrophotometrically. […] The inhibition reaction was started by mixing serial diluted test compound with the above reaction mixture. The absorption at 340 nm was monitored continuously for 5 hours at 30 °C on Synergy 2 plate reader (BioTech). […] The protein construct was prepared by deCODE Biostructures using procedures known in the art. […] This construct is identical to Seq ID no.

c-KIT T670I kinase = target: T3, c-KIT T670I kinase (Homo sapiens, UniProt P10721, T670I); experiment: c-KIT T670I kinase assay; assay type: biochemical; conditions: enzymatic assay
T3 construct: The construct contains residues T544-V976 of cKit; GST (N); TEV cleavage site (internal); purchased deCODE Biostructures
T3 sequence (P10721 544-976 T670I): as the sequence (P10721 544-976 D816V) above, with T127I, V273D counted along it
In short: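 Coupled spectrophotometric assay following NADH oxidation as absorbance decrease at 340 nm, monitored continuously for 5 h at 30 °C after adding serially diluted compound. Enzyme is a cKit construct with N-terminal tag, GST fusion and TEV site, carrying the T670I mutation.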

Phospho-KIT (Tyr719) [1] = experiment: GIST48 KIT Western Blot; assay type: cell-based; conditions: GIST48 cells, 4 hours, serum-free medium; read-out: pKIT suppression by western blot analysi GIST48
Experimental: (§1) GIST48, GIST430, and GIST882 cells were obtained from J. Fletcher (Brigham and Women's Hospital, Boston, MA). GIST T1 cells were obtained from B. Rubin (Cleveland Clinic, Cleveland, OH) and Professor Takahiro Taguchi (Kochi Medical School, Nankoku, Kochi, Japan). […] GIST430 cells were grown in Ham's F10 medium supplemented with 15% characterized fetal bovine serum (Invitrogen, Carlsbad, CA), 30 mg/L bovine pituitary extract (BD Biosciences, San Jose, CA), 0.5% Mito+ serum extender (BD Biosciences, San Jose, CA), 1 unit/mL penicillin G, 1 µg/ml streptomycin, and 0.29 mg/mL L-glutamine at 37 °C, 5%CO2, 95% humidity. GIST T1 cells were grown in DMEM medium supplemented with 10% characterized fetal bovine serum (Invitrogen, Carlsbad, CA), 1 unit/mL penicillin G, 1 µg/ml streptomycin, and 0.29 mg/mL L-glutamine at 37 °C, 5% CO2, and 95% humidity.
(§2) Two hundred fifty thousand cells were added per well in a 24-well tissue-culture treated plate. […] Medium was aspirated, cells were washed with PBS, and serum-free RPMI1640 medium was added. […] Cells were washed with PBS, then lysed. Cell lysates were separated by SDS-PAGE and transferred to PVDF. Phospho-KIT (Tyr719) was detected using an antibody from Cell Signaling Technology (Beverly, MA), ECL Plus detection reagent (GE Healthcare, Piscataway, NJ) and a Molecular Devices Storm 840 phosphorimager in fluorescence mode. Blots were stripped and probed for total KIT using an antibody from Santa Cruz Biotech (Santa Cruz, CA). IC50 values were calculated using Prism software (Graphpad, San Diego, CA).

c-KIT kinase = c-KIT kinase (Homo sapiens, UniProt P10721); experiment: c-KIT kinase Assay; assay type: biochemical; design: cKIT residues T544-V976; GST (N); TEV cleavage site (internal); purchased deCODE Biostructures; conditions: enzymatic assay, ATP 200 µM; read-out: KIT (wt) IC50
Sequence of c-KIT kinase (P10721 544-976): as the sequence (P10721 544-976 D816V) above, with V273D counted along it
In short: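 Activity of wild-type human c-KIT kinase was followed as NADH oxidation, read as falling absorbance at 340 nm on a Synergy 2 plate reader (BioTeK) for 2 hours at 30 °C. Rates from the 0 to 1 h window were compared with an uninhibited control to give percent inhibition. IC50 values were fitted in GraphPad Prism across a range of inhibitor concentrations.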

c-KIT D816H kinase = target: T4, c-KIT D816H kinase (Homo sapiens, UniProt P10721, D816H); experiment: c-KIT D816H Kinase Assay; assay type: biochemical; conditions: enzymatic assay, ATP 200 µM
T4 construct: The construct contains residues T544-V976 of cKit; GST (N); TEV cleavage site (internal); purchased deCODE Biostructures
T4 sequence (P10721 544-976 D816H): as the sequence (P10721 544-976 D816V) above, with V273H counted along it
In short: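 Coupled spectrophotometric assay following NADH oxidation as absorbance decrease at 340 nm, monitored continuously for 6 hours at 30 °C after adding serially diluted compound. Enzyme: mutant cKit construct with N-terminal tag, GST fusion and TEV cleavage site.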

Phospho-KIT (Tyr719) [2] = experiment: GIST430 KIT Western Blot; assay type: cell-based; conditions: GIST430 cells, 4 hours, serum-free medium; read-out: pKIT suppression by western blot analysi GIST430
Experimental: as §1
as §2, with “One” for “Two”, “Ham's F10” for “RPMI1640”

c-KIT V654A kinase = target: T5, c-KIT V654A kinase (Homo sapiens, UniProt P10721, V654A); experiment: c-KIT V654A Kinase Assay; assay type: biochemical; conditions: enzymatic assay, ATP 200 µM
T5 construct: residues T544-V976 with N-terminal GST fusion; purchased deCODE Biostructures
T5 sequence (P10721 544-976 V654A): as the sequence (P10721 544-976 D816V) above, with V111A, V273D counted along it
In short: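 Construct: cKIT residues T544–V976 with N-terminal tag, GST fusion and TEV site. Reaction started by adding serially diluted compound to the enzyme mixture; NADH oxidation, coupled to kinase turnover, followed as the decrease in A340 for 6 h at 30 °C.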

Phospho-KIT (Tyr719) [3] = target: T6, Phospho-KIT (Tyr719) (Homo sapiens, UniProt P10721, K642E); experiment: GIST882 KIT Western Blot; assay type: cell-based; conditions: GIST882 cells, 4 hours, serum-free medium; read-out: pKIT suppression by western blot analysi GIST 882
T6 construct: endogenous in cells; host or cells: GIST882
T6 sequence (P10721 26-976 K642E): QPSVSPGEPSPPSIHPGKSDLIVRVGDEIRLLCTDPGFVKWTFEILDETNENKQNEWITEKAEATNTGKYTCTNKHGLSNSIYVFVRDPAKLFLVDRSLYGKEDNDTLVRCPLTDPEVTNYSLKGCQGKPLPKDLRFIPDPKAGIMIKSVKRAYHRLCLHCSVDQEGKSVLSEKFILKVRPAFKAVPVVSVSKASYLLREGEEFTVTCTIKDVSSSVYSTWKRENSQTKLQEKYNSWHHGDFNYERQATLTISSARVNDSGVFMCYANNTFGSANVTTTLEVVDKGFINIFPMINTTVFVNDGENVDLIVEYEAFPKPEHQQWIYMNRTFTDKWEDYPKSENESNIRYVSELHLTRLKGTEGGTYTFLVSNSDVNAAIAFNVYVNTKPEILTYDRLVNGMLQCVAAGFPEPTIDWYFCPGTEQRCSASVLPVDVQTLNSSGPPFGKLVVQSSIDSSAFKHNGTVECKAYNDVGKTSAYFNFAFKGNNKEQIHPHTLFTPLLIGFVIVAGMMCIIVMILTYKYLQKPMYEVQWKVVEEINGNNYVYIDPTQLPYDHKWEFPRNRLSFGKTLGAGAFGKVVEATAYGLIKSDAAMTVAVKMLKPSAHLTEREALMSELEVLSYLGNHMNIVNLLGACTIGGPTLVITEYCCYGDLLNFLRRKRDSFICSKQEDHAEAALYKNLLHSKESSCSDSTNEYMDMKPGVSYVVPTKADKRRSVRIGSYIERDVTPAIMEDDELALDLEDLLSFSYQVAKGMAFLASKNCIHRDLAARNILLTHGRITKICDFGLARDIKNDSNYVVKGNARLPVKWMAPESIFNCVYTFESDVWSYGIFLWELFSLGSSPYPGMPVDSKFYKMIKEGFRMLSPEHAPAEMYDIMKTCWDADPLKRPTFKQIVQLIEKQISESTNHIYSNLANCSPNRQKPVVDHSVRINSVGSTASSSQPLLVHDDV
Experimental: as §1, §2

SMILES | pIC50 (c-KIT D816V kinase) | pIC50 (c-KIT VVDV kinase) | pIC50 (c-KIT T670I kinase) | pIC50 (Phospho-KIT (Tyr719) [1]) | pIC50 (c-KIT kinase) | pIC50 (c-KIT D816H kinase) | pIC50 (Phospho-KIT (Tyr719) [2]) | pIC50 (c-KIT V654A kinase) | pIC50 (Phospho-KIT (Tyr719) [3])
CCn1c(=O)c(-c2ccc(F)c(NC(=O)Nc3cccc(C#N)c3)c2)cc2cnc(NC)cc21 [Example 12, 1-(3-cyanophenyl)-3-(5-(1-ethyl-7-(methylamino)-2-oxo-1,2-dihydro-1,6-naphthyridin-3-yl)-2-fluorophenyl)urea] | < 6.00 | 6.00 to 7.00 | – | – | – | – | – | – | –
CNc1cc2c(cn1)cc(-c1ccc(F)c(NC(=O)Nc3ccccc3)c1)c(=O)n2C(C)C [Example 5, 1-(2-fluoro-5-(1-isopropyl-7-(methylamino)-2-oxo-1,2-dihydro-1,6-naphthyridin-3-yl)phenyl)-3-phenylurea] | 6.00 to 7.00 | 6.00 to 7.00 | – | – | – | – | – | – | –
CNc1cc2c(cn1)cc(-c1cc(NC(=O)Nc3cccc(F)c3F)c(F)cc1Cl)c(=O)n2C [Example 10, 1-(4-chloro-2-fluoro-5-(1-methyl-7-(methylamino)-2-oxo-1,2-dihydro-1,6-naphthyridin-3-yl)phenyl)-3-(2,3-difluorophenyl)urea] | 7.00 to 8.00 | 7.00 to 8.00 | 7.00 to 8.00 | – | – | – | – | – | –
CNc1cc2c(cn1)cc(-c1cc(NC(=O)Nc3cccc4ccccc34)c(F)cc1Cl)c(=O)n2C [Example 8, 1-(4-chloro-2-fluoro-5-(1-methyl-7-(methylamino)-2-oxo-1,2-dihydro-1,6-naphthyridin-3-yl)phenyl)-3-(naphthalen-1-yl)urea] | 7.00 to 8.00 | 6.00 to 7.00 | 7.00 to 8.00 | – | – | – | – | – | –
CCn1c(=O)c(-c2ccc(F)c(NC(=O)Nc3cccc4ccccc34)c2)cc2cnc(NC)cc21 [Example 2, 1-(5-(1-ethyl-7-(methylamino)-2-oxo-1,2-dihydro-1,6-naphthyridin-3-yl)-2-fluorophenyl)-3-(naphthalen-1-yl)urea] | 6.00 to 7.00 | 6.00 to 7.00 | > 8.00 | – | – | – | – | – | –
CNc1cc2c(cn1)cc(-c1cc(NC(=O)Nc3ccccc3)c(F)cc1Cl)c(=O)n2C [Example 7, 1-(4-chloro-2-fluoro-5-(1-methyl-7-(methylamino)-2-oxo-1,2-dihydro-1,6-naphthyridin-3-yl)phenyl)-3-phenylurea] | 7.00 to 8.00 | 7.00 to 8.00 | 7.00 to 8.00 | – | – | – | – | – | –
CNc1cc2c(cn1)cc(-c1cc(NC(=O)Nc3cccc(C#N)c3)c(F)cc1Cl)c(=O)n2C [Example 9, 1-(4-chloro-2-fluoro-5-(1-methyl-7-(methylamino)-2-oxo-1,2-dihydro-1,6-naphthyridin-3-yl)phenyl)-3-(3-cyanophenyl)urea] | 7.00 to 8.00 | 7.00 to 8.00 | 7.00 to 8.00 | – | > 8.00 | – | – | – | –

Further lines, results first:

pIC50 (c-KIT D816V kinase) | pIC50 (c-KIT VVDV kinase) | pIC50 (c-KIT T670I kinase) | pIC50 (Phospho-KIT (Tyr719) [1]) | pIC50 (c-KIT kinase) | pIC50 (c-KIT D816H kinase) | pIC50 (Phospho-KIT (Tyr719) [2]) | pIC50 (c-KIT V654A kinase) | pIC50 (Phospho-KIT (Tyr719) [3]) | SMILES
7.00 to 8.00 | 7.00 to 8.00 | 6.00 to 7.00 | 6.00 to 7.00 | > 8.00 | 7.00 to 8.00 | 6.00 to 7.00 | 7.00 to 8.00 | – | CCn1c(=O)c(-c2cc(NC(=O)Nc3ccccc3)c(F)cc2F)cc2cnc(NCCOC)cc21 [Example 36, 1-(5-(1-ethyl-7-(2-methoxyethylamino)-2-oxo-1,2-dihydro-1,6-naphthyridin-3-yl)-2,4-difluorophenyl)-3-phenylurea]
7.00 to 8.00 | < 6.00 | 7.00 to 8.00 | – | > 8.00 | 7.00 to 8.00 | – | 7.00 to 8.00 | – | CCn1c(=O)c(-c2cc(NC(=O)Nc3cccc(F)c3)c(F)cc2C)cc2cnc(NC3CC3)cc21 [Example 45, 1-(5-(7-(cyclopropylamino)-1-ethyl-2-oxo-1,2-dihydro-1,6-naphthyridin-3-yl)-2-fluoro-4-methylphenyl)-3-(3-fluorophenyl)urea]
> 8.00 | 7.00 to 8.00 | – | – | > 8.00 | – | – | – | – | CCn1c(=O)c(-c2cc(NC(=O)Nc3csc4ccccc34)c(F)cc2F)cc2cnc(NC)cc21 [Example 19, 1-(benzo[b]thiophen-3-yl)-3-(5-(1-ethyl-7-(methylamino)-2-oxo-1,2-dihydro-1,6-naphthyridin-3-yl)-2,4-difluorophenyl)urea]
6.00 to 7.00 | 7.00 to 8.00 | 7.00 to 8.00 | – | > 8.00 | – | – | – | – | CCn1c(=O)c(-c2cc(NC(=O)Nc3cccc(C#N)c3)c(F)cc2F)cc2cnc(NC)cc21 [Example 18, 1-(3-cyanophenyl)-3-(5-(1-ethyl-7-(methylamino)-2-oxo-1,2-dihydro-1,6-naphthyridin-3-yl)-2,4-difluorophenyl)urea]
< 6.00 | < 6.00 | – | – | 7.00 to 8.00 | – | – | – | – | CCn1c(=O)c(-c2c(Cl)ccc(NC(=O)Nc3ccccc3)c2F)cc2cnc(NC)cc21 [Example 26, 1-(4-chloro-3-(1-ethyl-7-(methylamino)-2-oxo-1,2-dihydro-1,6-naphthyridin-3-yl)-2-fluorophenyl)-3-phenylurea]
7.00 to 8.00 | – | 7.00 to 8.00 | 7.00 to 8.00 | > 8.00 | 7.00 to 8.00 | 7.00 to 8.00 | 6.00 to 7.00 | 7.00 to 8.00 | CCn1c(=O)c(-c2cc(NC(=O)Nc3ccccc3)c(F)cc2Cl)cc2cnc(NC(=O)N3CC[C@@H](N(C)C)C3)cc21 [Example 84, (R)-N-(3-(2-chloro-4-fluoro-5-(3-phenylureido)phenyl)-1-ethyl-2-oxo-1,2-dihydro-1,6-naphthyridin-7-yl)-3-(dimethylamino)pyrrolidine-1-carboxamide]
7.00 to 8.00 | 6.00 to 7.00 | 6.00 to 7.00 | – | > 8.00 | 7.00 to 8.00 | 7.00 to 8.00 | > 8.00 | – | CCn1c(=O)c(-c2cc(NC(=O)Nc3ccccc3)ccc2Cl)cc2cnc(NC)cc21 [Example 33, 1-(4-chloro-3-(1-ethyl-7-(methylamino)-2-oxo-1,2-dihydro-1,6-naphthyridin-3-yl)phenyl)-3-phenylurea]
7.00 to 8.00 | > 8.00 | 7.00 to 8.00 | – | – | – | – | – | – | CNc1cc2c(cn1)cc(-c1cc(NC(=O)Nc3csc4ccccc34)c(F)cc1C)c(=O)n2C [Example 13, 1-(benzo[b]thiophen-3-yl)-3-(2-fluoro-4-methyl-5-(1-methyl-7-(methylamino)-2-oxo-1,2-dihydro-1,6-naphthyridin-3-yl)phenyl)urea]
